The text below walks through data of ChEMBL document CHEMBL3217647, “Prospective use of molecular field points in ligand-based virtual screening: efficient identification of new reversible Cdc25 inhibitors” (Medchemcomm, 2013).

SMILES strings stand for the structures.

The first assay has as its target T1, M-phase inducer phosphatase 3 (Homo sapiens, UniProt P30307).
T1 sequence (P30307 whole entry): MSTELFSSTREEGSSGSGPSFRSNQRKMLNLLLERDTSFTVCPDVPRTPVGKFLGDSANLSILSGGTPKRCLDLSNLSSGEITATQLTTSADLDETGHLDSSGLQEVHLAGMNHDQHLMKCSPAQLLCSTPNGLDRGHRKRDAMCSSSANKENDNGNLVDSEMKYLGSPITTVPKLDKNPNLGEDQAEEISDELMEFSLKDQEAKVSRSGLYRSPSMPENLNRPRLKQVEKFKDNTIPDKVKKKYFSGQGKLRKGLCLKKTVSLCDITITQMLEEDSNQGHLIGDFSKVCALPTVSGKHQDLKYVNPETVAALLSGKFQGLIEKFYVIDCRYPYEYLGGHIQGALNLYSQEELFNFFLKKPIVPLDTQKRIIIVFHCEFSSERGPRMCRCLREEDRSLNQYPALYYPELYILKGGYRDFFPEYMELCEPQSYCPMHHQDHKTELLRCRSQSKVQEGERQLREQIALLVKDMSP
Nature of the assay: Inhibition of Cdc25C (unknown origin) phosphatase activity assessed as fluorescence by BMG plate reader in the absence of detergent.
For `COc1ccccc1-c1nc(-c2ccc3c(c2)CCN3S(C)(=O)=O)cs1`, the IC50 came out at 14.2 µM.

On to `CCOc1ccc(-c2nc(-c3ccc4ccccc4c3)cs2)cc1`, for which the IC50 was found to be 31.5 µM.

Take `COc1ccc(-c2nc(-c3cc(C)n(CC4CCCO4)c3C)cs2)cc1` (configuration not stated): the IC50 stood at 24.7 µM.

For `COc1ccc(-c2csc(-c3cccc(NC(=O)C4CC4)c3)n2)cc1`, the half-maximal inhibitory concentration (IC50) came out at 16.8 µM.

Take `Cc1cccc(-c2nc(-c3ccc4c(c3)CCN4S(C)(=O)=O)cs2)c1`: the half-inhibitory concentration (IC50) worked out at 24.3 µM.

For the next assay, the species on record is Homo sapiens. Nature of the assay: Inhibition of alkaline phosphatase (unknown origin) phosphatase activity assessed as fluorescence at 100 uM by BMG plate reader in the presence of 0.005% Tween-20.
For the molecule `COc1ccccc1-c1nc(-c2ccc3c(c2)CCN3S(C)(=O)=O)cs1`, the inhibition was below 50%.

As to `CCOc1ccc(-c2nc(-c3ccc4ccccc4c3)cs2)cc1`, the inhibition is below 50%.

As for `COc1ccc(-c2nc(-c3cc(C)n(CC4CCCO4)c3C)cs2)cc1` (configuration not stated), the inhibition was below 50%.

`Cc1cccc(-c2nc(-c3ccc4c(c3)CCN4S(C)(=O)=O)cs2)c1`: the inhibition was below 50%.

The target of a further assay is T2, M-phase inducer phosphatase 2 (Homo sapiens, UniProt P30305).
T2 sequence (P30305 whole entry): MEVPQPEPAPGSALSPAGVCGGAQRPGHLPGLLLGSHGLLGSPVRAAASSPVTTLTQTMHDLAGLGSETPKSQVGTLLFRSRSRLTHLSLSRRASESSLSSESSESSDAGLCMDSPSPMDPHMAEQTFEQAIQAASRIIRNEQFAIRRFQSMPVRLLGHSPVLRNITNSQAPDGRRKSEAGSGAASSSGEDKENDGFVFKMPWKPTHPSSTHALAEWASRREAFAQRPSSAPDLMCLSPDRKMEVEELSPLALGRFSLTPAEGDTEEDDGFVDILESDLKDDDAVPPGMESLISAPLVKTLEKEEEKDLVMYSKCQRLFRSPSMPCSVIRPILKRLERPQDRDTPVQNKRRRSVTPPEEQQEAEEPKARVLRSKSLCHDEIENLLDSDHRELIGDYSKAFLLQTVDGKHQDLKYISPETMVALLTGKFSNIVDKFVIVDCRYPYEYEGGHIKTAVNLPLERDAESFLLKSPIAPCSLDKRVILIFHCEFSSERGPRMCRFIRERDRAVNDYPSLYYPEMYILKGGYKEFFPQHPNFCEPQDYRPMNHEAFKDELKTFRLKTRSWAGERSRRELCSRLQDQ
In words: Inhibition of Cdc25B (unknown origin) phosphatase activity assessed as fluorescence by BMG plate reader in the absence of detergent.
`COc1ccccc1-c1nc(-c2ccc3c(c2)CCN3S(C)(=O)=O)cs1`: the IC50 is 10.1 µM.

Regarding `CCOc1ccc(-c2nc(-c3ccc4ccccc4c3)cs2)cc1`, the half-maximal inhibitory concentration (IC50) turned out to be 13.6 µM.

Consider `COc1ccc(-c2nc(-c3cc(C)n(CC4CCCO4)c3C)cs2)cc1` (configuration not stated), for which the concentration for half-maximal inhibition (IC50) stood at 12.1 µM.

For `COc1ccc(-c2csc(-c3cccc(NC(=O)C4CC4)c3)n2)cc1`, the IC50 worked out at 14.9 µM.

On to `Cc1cccc(-c2nc(-c3ccc4c(c3)CCN4S(C)(=O)=O)cs2)c1`, for which the concentration for half-maximal inhibition (IC50) was determined as 19 µM.

The next assay deals with T3, Dual specificity protein phosphatase 3 (Homo sapiens, UniProt P51452). Nature of the assay: Inhibition of human His-tagged VHR phosphatase activity assessed as fluorescence by BMG plate reader in the presence of 0.005% Tween-20.
T3 sequence (P51452 whole entry): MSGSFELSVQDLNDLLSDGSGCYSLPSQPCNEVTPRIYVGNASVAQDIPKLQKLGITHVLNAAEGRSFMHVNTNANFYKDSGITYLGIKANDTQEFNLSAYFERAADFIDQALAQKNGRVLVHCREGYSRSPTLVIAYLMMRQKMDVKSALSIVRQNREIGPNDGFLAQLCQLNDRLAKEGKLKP
`COc1ccccc1-c1nc(-c2ccc3c(c2)CCN3S(C)(=O)=O)cs1`: the 50% inhibitory concentration (IC50) was 40.2 µM.

Take `CCOc1ccc(-c2nc(-c3ccc4ccccc4c3)cs2)cc1`: the IC50 is 61 µM.

As to `COc1ccc(-c2nc(-c3cc(C)n(CC4CCCO4)c3C)cs2)cc1` (configuration not stated), the half-maximal inhibitory concentration (IC50) was 33.3 µM.

Take `COc1ccc(-c2csc(-c3cccc(NC(=O)C4CC4)c3)n2)cc1`: the IC50 is above 100 µM.

`Cc1cccc(-c2nc(-c3ccc4c(c3)CCN4S(C)(=O)=O)cs2)c1`: the IC50 was 40.1 µM.

Another assay addresses T4, M-phase inducer phosphatase 1 (Homo sapiens, UniProt P30304).
T4 sequence (P30304 whole entry): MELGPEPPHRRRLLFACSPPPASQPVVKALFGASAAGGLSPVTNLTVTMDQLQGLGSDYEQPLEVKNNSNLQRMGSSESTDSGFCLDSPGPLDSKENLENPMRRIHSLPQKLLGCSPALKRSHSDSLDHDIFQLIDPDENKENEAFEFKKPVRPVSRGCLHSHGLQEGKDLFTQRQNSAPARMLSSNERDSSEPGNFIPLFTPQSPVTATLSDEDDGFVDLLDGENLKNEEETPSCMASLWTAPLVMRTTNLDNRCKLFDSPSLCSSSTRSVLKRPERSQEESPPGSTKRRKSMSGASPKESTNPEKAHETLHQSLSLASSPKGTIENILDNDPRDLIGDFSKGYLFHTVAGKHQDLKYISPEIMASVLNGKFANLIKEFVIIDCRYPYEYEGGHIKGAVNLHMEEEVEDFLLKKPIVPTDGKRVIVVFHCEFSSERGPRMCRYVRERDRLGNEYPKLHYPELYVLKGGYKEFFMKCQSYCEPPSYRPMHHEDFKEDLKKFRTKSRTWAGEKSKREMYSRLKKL
Nature of the assay: Inhibition of Cdc25A (unknown origin) phosphatase activity assessed as fluorescence by BMG plate reader in the presence of 0.005% Tween-20.
With `COc1ccccc1-c1nc(-c2ccc3c(c2)CCN3S(C)(=O)=O)cs1`, the IC50 came out at 41.7 µM.

For the molecule `CCOc1ccc(-c2nc(-c3ccc4ccccc4c3)cs2)cc1`, the IC50 came out at 30 µM.

As for `COc1ccc(-c2nc(-c3cc(C)n(CC4CCCO4)c3C)cs2)cc1` (configuration not stated), the 50% inhibitory concentration (IC50) is 31.1 µM.

In the case of `COc1ccc(-c2csc(-c3cccc(NC(=O)C4CC4)c3)n2)cc1`, the half-inhibitory concentration (IC50) was above 100 µM.

As to `Cc1cccc(-c2nc(-c3ccc4c(c3)CCN4S(C)(=O)=O)cs2)c1`, the half-maximal inhibitory concentration (IC50) was found to be 31.8 µM.

A further assay deals with T2, M-phase inducer phosphatase 2. Nature of the assay: Inhibition of Cdc25B (unknown origin) phosphatase activity assessed as fluorescence by BMG plate reader in the presence of 0.005% Tween-20.
Regarding `COc1ccccc1-c1nc(-c2ccc3c(c2)CCN3S(C)(=O)=O)cs1`, the 50% inhibitory concentration (IC50) was 31.3 µM.

Regarding `CCOc1ccc(-c2nc(-c3ccc4ccccc4c3)cs2)cc1`, the IC50 is above 100 µM.

Consider `COc1ccc(-c2nc(-c3cc(C)n(CC4CCCO4)c3C)cs2)cc1` (configuration not stated), for which the 50% inhibitory concentration (IC50) stood at 23.6 µM.

As to `COc1ccc(-c2csc(-c3cccc(NC(=O)C4CC4)c3)n2)cc1`, the IC50 is above 100 µM.

Regarding `Cc1cccc(-c2nc(-c3ccc4c(c3)CCN4S(C)(=O)=O)cs2)c1`, the concentration for half-maximal inhibition (IC50) came out at 34.4 µM.

For the next assay, the target named is T1, M-phase inducer phosphatase 3. Nature of the assay: Inhibition of Cdc25C (unknown origin) phosphatase activity assessed as fluorescence by BMG plate reader in the presence of 0.005% Tween-20.
On to `COc1ccccc1-c1nc(-c2ccc3c(c2)CCN3S(C)(=O)=O)cs1`, for which the 50% inhibitory concentration (IC50) came to 42.6 µM.

Consider `CCOc1ccc(-c2nc(-c3ccc4ccccc4c3)cs2)cc1`, for which the IC50 is 71.5 µM.

`COc1ccc(-c2nc(-c3cc(C)n(CC4CCCO4)c3C)cs2)cc1` (configuration not stated): the IC50 was above 100 µM.

On to `COc1ccc(-c2csc(-c3cccc(NC(=O)C4CC4)c3)n2)cc1`, for which the IC50 came out at 42.2 µM.

As to `Cc1cccc(-c2nc(-c3ccc4c(c3)CCN4S(C)(=O)=O)cs2)c1`, the half-inhibitory concentration (IC50) was determined as 37.8 µM.

A further assay concerns the target T4, M-phase inducer phosphatase 1. In words: Inhibition of Cdc25A (unknown origin) phosphatase activity assessed as fluorescence by BMG plate reader in the absence of detergent.
For `COc1ccccc1-c1nc(-c2ccc3c(c2)CCN3S(C)(=O)=O)cs1`, the IC50 amounted to 4 µM.

For `CCOc1ccc(-c2nc(-c3ccc4ccccc4c3)cs2)cc1`, the IC50 was 13 µM.

As to `COc1ccc(-c2nc(-c3cc(C)n(CC4CCCO4)c3C)cs2)cc1` (configuration not stated), the IC50 is 6.4 µM.

As to `COc1ccc(-c2csc(-c3cccc(NC(=O)C4CC4)c3)n2)cc1`, the IC50 is 10.2 µM.

On to `Cc1cccc(-c2nc(-c3ccc4c(c3)CCN4S(C)(=O)=O)cs2)c1`, for which the IC50 came out at 5.6 µM.

A further assay addresses T3, Dual specificity protein phosphatase 3. In words: Inhibition of human His-tagged VHR phosphatase activity assessed as fluorescence by BMG plate reader in the absence of detergent.
Regarding `COc1ccccc1-c1nc(-c2ccc3c(c2)CCN3S(C)(=O)=O)cs1`, the concentration for half-maximal inhibition (IC50) was determined as 2.7 µM.

For the molecule `CCOc1ccc(-c2nc(-c3ccc4ccccc4c3)cs2)cc1`, the IC50 was determined as 4.4 µM.

As for `COc1ccc(-c2nc(-c3cc(C)n(CC4CCCO4)c3C)cs2)cc1` (configuration not stated), the IC50 was determined as 8.3 µM.

On to `COc1ccc(-c2csc(-c3cccc(NC(=O)C4CC4)c3)n2)cc1`, for which the concentration for half-maximal inhibition (IC50) turned out to be 8.9 µM.

Regarding `Cc1cccc(-c2nc(-c3ccc4c(c3)CCN4S(C)(=O)=O)cs2)c1`, the IC50 was 8 µM.

The target of a further assay is T5, Tyrosine-protein phosphatase non-receptor type 1 (Homo sapiens) (UniProt P18031).
T5 sequence (whole entry): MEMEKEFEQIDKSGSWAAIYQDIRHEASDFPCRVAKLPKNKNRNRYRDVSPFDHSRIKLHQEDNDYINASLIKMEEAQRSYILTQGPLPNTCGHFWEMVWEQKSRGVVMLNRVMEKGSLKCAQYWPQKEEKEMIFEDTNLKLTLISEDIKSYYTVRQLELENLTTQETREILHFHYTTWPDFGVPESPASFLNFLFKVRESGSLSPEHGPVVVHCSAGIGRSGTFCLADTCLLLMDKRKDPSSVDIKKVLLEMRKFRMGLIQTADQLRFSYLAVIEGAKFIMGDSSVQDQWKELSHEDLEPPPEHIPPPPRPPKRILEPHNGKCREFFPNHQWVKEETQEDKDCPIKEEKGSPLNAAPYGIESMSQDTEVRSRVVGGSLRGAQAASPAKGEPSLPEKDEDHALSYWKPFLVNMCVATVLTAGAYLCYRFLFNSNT
Nature of the assay: Inhibition of PTP1B (unknown origin) phosphatase activity assessed as fluorescence at 100 uM by BMG plate reader in the presence of 0.005% Tween-20.
Consider `COc1ccccc1-c1nc(-c2ccc3c(c2)CCN3S(C)(=O)=O)cs1`, for which the inhibition is below 50%.

`CCOc1ccc(-c2nc(-c3ccc4ccccc4c3)cs2)cc1`: the inhibition is below 50%.

`COc1ccc(-c2nc(-c3cc(C)n(CC4CCCO4)c3C)cs2)cc1` (configuration not stated): the inhibition is below 50%.

As for `Cc1cccc(-c2nc(-c3ccc4c(c3)CCN4S(C)(=O)=O)cs2)c1`, the inhibition was below 50%.

The species named for another assay is Homo sapiens. In words: Inhibition of MKP-5/p38 (unknown origin) phosphatase activity assessed as fluorescence at 100 uM by BMG plate reader in the presence of 0.005% Tween-20.
For `COc1ccccc1-c1nc(-c2ccc3c(c2)CCN3S(C)(=O)=O)cs1`, the inhibition is below 50%.

In the case of `CCOc1ccc(-c2nc(-c3ccc4ccccc4c3)cs2)cc1`, the inhibition was below 50%.

`COc1ccc(-c2nc(-c3cc(C)n(CC4CCCO4)c3C)cs2)cc1` (configuration not stated): the inhibition was below 50%.

As for `Cc1cccc(-c2nc(-c3ccc4c(c3)CCN4S(C)(=O)=O)cs2)c1`, the inhibition is below 50%.
